According to US20190350964A1, “ANTI-CANCER COMPOUNDS AND USES THEREOF” (NATIONAL UNIVERSITY OF SINGAPORE, priority 2016, published 2019):

How the values were obtained:
[1] = tested on: ARPE-19; experiment: MTT cytotoxicity test (GI50); format: cell-based; settings: Homo sapiens; ARPE-19, normal, retina; MTT 72 h
[2] = tested on: MKN45; experiment: MTT cytotoxicity test (GI50); format: cell-based; settings: Homo sapiens, MKN-45; MKN45, cancer, gastric; MTT 72 h
[3] = tested on: NUGC3; experiment: MTT cytotoxicity test (GI50); format: cell-based; settings: Homo sapiens, NUGC-3; NUGC3, cancer, gastric; MTT 72 h
[4] = tested on: HT29; experiment: MTT cytotoxicity test (GI50); format: cell-based; settings: Homo sapiens, HT-29; HT29, cancer, colon; MTT 72 h
[5] = tested on: SNU449; experiment: MTT cytotoxicity test (GI50); format: cell-based; settings: Homo sapiens, SNU-449; SNU449, cancer, liver; MTT 72 h
[6] = tested on: HeLa; experiment: MTT cytotoxicity test (GI50); format: cell-based; settings: Homo sapiens, cancer, others, cervix, MTT 72 h
[7] = tested on: U2OS; experiment: MTT cytotoxicity test (GI50); format: cell-based; settings: Homo sapiens, cancer, others, bone, MTT 72 h
[8] = target: T1, Phosphatidylinositol 5-phosphate 4-kinase type-2 gamma (Homo sapiens, UniProt Q8TBX8); experiment: MS-CETSA in normal BJ cell lysates; format: binding; settings: lysate, 100 μM compound
T1 construct: After collecting data covering >8,000 proteins in lysates of normal BJ cells; endogenous in cells; host or cells: normal BJ cells, lysate
T1 sequence (Q8TBX8 whole entry): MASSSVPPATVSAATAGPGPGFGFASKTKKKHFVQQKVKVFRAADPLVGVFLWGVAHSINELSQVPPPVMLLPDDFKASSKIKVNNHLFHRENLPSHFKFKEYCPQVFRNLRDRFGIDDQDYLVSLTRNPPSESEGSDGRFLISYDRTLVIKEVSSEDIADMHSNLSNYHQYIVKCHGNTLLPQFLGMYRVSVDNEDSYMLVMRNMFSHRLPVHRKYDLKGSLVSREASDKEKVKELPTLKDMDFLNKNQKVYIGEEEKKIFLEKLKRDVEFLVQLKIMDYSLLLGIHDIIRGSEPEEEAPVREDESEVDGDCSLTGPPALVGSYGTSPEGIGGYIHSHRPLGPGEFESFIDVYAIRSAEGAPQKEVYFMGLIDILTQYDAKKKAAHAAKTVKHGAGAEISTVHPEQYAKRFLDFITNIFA
Procedure: (§1) Target identification was performed by cellular thermal shift assay (CETSA) coupled with quantitative mass spectrometry. In brief, normal BJ cells were lysed by combination of freeze/thaw and mechanical shearing with needle in buffer [50 mM HEPES (pH 7.5), 5 mM β-glycerophosphate, 0.1 mM Sodium Vanadate, 10 mM MgCl2, 1 mM TCEP and 1× Protease inhibitor Cocktail]. The cell debris was removed by centrifugation at 20,000 g for 20 min at 4° C. […] Each lysate was divided into 10 aliquots for heat treatment at the respective temperatures for 3 min in a 96-well thermocycler, followed by 3 min at 4° C. The lysate was centrifuged at 20,000 g for 20 min at 4° C. and the supernatant was transferred into microtubes for MS sample preparation.
(§2) After lysis, at least 100 μg of the protein (measured with a BCA assay) was subjected to reduction, denaturation and alkylation. Samples were subsequently incubated with sequencing grade LysC (Wako) and trypsin (Promega) for digestion overnight at 37° C. The digested samples were dried using a centrifugal vacuum evaporator, solubilized in 100 mM TEAB. […]
(§3) Proteins for which a low temperature plateau was not present were deleted using a cut off >0.85 for the average reading of the first three temperature points (in our experience proteins melting already at −37° C. are more prone to give false positives in a shift analysis).

[9] = target: T2, 3-hydroxybutyrate dehydrogenase type 2 (Homo sapiens, UniProt Q9BUT1); experiment: MS-CETSA in normal BJ cell lysates; format: binding; settings: lysate, 100 μM compound
T2 construct: After collecting data covering >8,000 proteins in lysates of normal BJ cells; endogenous in cells; host or cells: normal BJ cells, lysate
T2 sequence (Q9BUT1 whole entry): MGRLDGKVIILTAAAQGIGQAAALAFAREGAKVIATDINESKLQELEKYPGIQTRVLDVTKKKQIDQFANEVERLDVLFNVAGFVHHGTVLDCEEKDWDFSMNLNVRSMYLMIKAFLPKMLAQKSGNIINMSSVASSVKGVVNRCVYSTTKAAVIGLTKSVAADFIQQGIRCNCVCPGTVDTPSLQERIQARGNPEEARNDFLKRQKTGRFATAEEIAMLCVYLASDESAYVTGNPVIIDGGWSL
Procedure: as §1, §2, §3

[10] = target: T3, AP-3 complex subunit sigma-1 (Homo sapiens, UniProt Q92572); experiment: MS-CETSA in normal BJ cell lysates; format: binding; settings: lysate, 100 μM compound
T3 construct: After collecting data covering >8,000 proteins in lysates of normal BJ cells; endogenous in cells; host or cells: normal BJ cells, lysate
T3 sequence (Q92572 whole entry): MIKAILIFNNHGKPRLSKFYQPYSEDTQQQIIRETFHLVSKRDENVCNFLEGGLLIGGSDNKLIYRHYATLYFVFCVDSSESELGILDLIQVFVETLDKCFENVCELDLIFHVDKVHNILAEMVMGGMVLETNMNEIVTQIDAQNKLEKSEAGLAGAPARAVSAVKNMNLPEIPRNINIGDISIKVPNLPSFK
T3 sequence (O14617 whole entry partner): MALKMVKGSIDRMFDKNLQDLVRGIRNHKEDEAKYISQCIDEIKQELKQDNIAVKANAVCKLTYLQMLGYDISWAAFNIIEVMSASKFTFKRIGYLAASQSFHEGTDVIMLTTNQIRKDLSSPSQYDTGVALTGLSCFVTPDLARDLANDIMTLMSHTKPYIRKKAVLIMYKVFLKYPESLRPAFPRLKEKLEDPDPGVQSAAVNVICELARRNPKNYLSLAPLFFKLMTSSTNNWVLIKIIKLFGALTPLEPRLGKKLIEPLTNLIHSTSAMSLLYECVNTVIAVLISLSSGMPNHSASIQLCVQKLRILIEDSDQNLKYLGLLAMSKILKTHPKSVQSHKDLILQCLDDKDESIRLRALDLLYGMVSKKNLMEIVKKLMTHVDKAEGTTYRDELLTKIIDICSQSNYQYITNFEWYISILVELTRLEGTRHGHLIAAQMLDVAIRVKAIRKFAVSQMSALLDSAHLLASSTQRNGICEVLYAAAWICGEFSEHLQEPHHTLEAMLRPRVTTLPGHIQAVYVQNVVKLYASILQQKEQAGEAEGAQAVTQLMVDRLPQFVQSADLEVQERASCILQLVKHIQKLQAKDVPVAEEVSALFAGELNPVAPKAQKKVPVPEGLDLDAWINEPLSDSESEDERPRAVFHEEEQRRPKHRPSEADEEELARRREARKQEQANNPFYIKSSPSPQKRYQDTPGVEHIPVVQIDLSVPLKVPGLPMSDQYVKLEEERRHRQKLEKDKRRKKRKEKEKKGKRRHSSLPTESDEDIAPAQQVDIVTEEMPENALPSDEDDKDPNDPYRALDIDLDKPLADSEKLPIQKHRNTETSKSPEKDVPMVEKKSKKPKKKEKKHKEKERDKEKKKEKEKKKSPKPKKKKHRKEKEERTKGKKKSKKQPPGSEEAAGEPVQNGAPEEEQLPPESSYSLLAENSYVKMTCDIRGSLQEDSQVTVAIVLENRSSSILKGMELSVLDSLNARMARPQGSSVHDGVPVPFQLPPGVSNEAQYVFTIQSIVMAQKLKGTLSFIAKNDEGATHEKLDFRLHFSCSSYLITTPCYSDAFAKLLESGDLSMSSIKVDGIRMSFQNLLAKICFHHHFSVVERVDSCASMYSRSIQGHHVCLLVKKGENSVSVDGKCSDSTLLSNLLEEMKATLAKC
T3 sequence (O00203 whole entry partner): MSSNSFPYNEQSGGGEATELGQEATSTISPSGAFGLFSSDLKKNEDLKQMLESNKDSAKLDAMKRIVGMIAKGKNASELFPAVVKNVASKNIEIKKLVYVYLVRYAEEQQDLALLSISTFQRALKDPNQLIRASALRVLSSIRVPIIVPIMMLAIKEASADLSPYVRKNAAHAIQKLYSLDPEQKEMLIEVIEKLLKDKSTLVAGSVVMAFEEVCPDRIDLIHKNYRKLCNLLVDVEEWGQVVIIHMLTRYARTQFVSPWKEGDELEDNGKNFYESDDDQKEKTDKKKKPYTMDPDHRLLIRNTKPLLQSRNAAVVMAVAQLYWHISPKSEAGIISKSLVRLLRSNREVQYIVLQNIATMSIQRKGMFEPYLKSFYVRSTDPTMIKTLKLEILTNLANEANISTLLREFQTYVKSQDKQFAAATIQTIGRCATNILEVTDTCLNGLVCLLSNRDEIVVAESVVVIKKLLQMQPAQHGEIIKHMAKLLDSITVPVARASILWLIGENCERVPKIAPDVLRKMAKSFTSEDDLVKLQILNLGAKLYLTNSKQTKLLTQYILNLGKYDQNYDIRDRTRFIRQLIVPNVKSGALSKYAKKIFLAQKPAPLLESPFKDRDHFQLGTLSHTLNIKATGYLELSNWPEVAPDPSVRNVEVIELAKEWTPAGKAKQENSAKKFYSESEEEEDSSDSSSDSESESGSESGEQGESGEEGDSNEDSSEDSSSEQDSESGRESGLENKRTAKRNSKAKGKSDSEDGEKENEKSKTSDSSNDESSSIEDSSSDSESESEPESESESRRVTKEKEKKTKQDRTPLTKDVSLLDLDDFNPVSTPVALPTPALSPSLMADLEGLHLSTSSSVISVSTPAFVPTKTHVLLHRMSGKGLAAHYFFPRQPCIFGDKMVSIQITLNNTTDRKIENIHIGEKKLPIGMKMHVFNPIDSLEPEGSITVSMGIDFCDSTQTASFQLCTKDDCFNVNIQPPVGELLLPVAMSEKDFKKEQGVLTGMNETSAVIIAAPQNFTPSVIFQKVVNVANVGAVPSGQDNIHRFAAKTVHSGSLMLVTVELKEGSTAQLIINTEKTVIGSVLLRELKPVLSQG
T3 sequence (Q9Y2T2 whole entry partner): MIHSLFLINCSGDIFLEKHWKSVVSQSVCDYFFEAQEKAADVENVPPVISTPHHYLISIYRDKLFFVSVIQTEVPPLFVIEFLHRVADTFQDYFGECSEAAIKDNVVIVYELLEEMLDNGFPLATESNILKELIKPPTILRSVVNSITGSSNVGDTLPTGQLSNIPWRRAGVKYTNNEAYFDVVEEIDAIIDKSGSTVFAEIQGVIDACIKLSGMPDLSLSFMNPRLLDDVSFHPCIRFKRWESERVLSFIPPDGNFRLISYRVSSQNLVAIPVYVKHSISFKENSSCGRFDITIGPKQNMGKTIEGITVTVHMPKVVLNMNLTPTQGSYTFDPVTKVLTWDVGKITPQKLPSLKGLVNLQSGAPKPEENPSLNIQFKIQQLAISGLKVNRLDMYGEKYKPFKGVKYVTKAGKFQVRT
Procedure: as §1, §2, §3

[11] = target: T4, Delta(3,5)-Delta(2,4)-dienoyl-CoA isomerase, mitochondrial (Homo sapiens, UniProt Q13011); experiment: MS-CETSA in normal BJ cell lysates; format: binding; settings: lysate, 100 μM compound
T4 construct: After collecting data covering >8,000 proteins in lysates of normal BJ cells; endogenous in cells; host or cells: normal BJ cells, lysate
T4 sequence (Q13011 34-328): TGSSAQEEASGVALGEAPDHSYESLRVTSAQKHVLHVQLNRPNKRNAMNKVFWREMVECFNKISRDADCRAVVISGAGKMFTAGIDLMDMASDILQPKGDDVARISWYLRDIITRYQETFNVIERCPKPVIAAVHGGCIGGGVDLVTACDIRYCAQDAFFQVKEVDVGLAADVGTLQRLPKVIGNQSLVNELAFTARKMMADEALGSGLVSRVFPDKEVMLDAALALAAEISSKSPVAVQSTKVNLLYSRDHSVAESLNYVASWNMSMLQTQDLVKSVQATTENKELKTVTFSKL
Procedure: as §1, §2, §3

[12] = tested on: MDA-MB-231 human breast tumor cells; experiment: MDA-MB-231 tumor xenograft in nude mice; format: in vivo, mouse; settings: a131 20 mg/kg, b5 40-80 mg/kg, PO or IP twice daily, 15 days
From the text: BALB/c athymic female nude mice (nu/nu, 5-7 weeks) (InVivos) were kept under specific pathogen-free (SPF) conditions. The care and use of mice was approved by the Duke-NUS IACUC in accordance with protocol 2015/SHS/1030. HCT15 human colon cancer cells (5×10^6) or MDA-MB-231 human breast cancer cells (4×10^6 with Matrigel) were subcutaneously injected into the flanks of mice. When the mean tumor volume reached 100-300 mm^3 (Day 1), the mice were randomly divided into experimental groups of 6 mice by an algorithm that moves animals around to achieve the best case distribution to assure that each treatment group has similar mean tumor burden and standard deviation. No statistical method was used to predetermine sample size. […] Tumor dimensions were measured using calipers, and tumor volume (mm^3) was calculated using the formula width^2×length/2 in a blinded fashion. […] Images were acquired in 3D-SIM mode using a super resolution microscope (Nikon), and the number of cells with either 2 or mitotic-spindles was quantified (n>50 cells per section, 6-7 sections per treatment). […] For the DAB image, a fixed threshold was used, watershed applied and the number of DAB stained nuclei counted. In all cases, no data or animals were excluded and results are expressed as mean and standard deviation of the mean.

[13] = tested on: Ras-driven glioma initiating cells (GICs); experiment: Brain slice explants (orthotopically implanted ex vivo model); design: species or system mouse; settings: 20 μM, 4 days
Procedure: Fifty thousand GICs were orthotopically implanted into the forebrain of wild-type mice, and at 7 days post-implantation, brain slice explants were established as previously described (Sampetrean, O. et al., Neoplasia 13: 784-791 (2011)). […] Images were acquired on an FV10i Olympus confocal microscope (Olympus) and tumor area was quantified by Nikon NIS-element software. Experiments were performed in triplicate. At the end of the experiment (Day 4), slices were fixed overnight in 4% paraformaldehyde, embedded in paraffin and then sectioned at a thickness of 4 μm. Deparaffinized sections were stained with rabbit polyclonal antibody against cleaved caspase 3 (Cell Signaling). Immune complexes were detected using Histofine (Nichirei Biosciences) and ImmPACTDAB (Vector Laboratories). All animal experiments were performed in accordance with the animal care guidelines of Keio University.

`N#C/C(=C\c1cccc2cnccc12)c1c[nH]c2ccccc12` [a131, (Z)-2-(1H-indol-3-yl)-3-(5-isoquinolyl)prop-2-enenitrile] gave a GI50 [1] greater than 10 µM, a GI50 [2] of 1 µM and a GI50 [3] of 1 µM. For the same compound, the GI50 [4] was 0.9 µM, the GI50 [5] was 2.3 µM and the GI50 [6] was 1.4 µM. It also gave a GI50 [7] of 1.5 µM, an ED score [8] of 0.5989 and a ΔTm at 100 µM ([8]; read-out: mean Delta Tm) of 2.89 °C. It also gave an ED score [9] of 0.5139, a ΔTm at 100 µM ([9]; read-out: mean Delta Tm) of 1.83 °C and an ED score [10] of 0.3486. For the same compound, the ΔTm at 100 µM ([10]; read-out: mean Delta Tm) was 2.26 °C, the ED score [11] was 0.3541 and the ΔTm at 100 µM ([11]; read-out: mean Delta Tm) was 1.51 °C. For the same compound, the “antitumor activity (tumor volume)” value [12] was “marked antitumor efficacies”, the “apoptosis (cleaved caspase-3) in tumor versus surrounding normal tissue” value [13] was “induced apoptosis only in tumors, but not surrounding normal tissues” and the “tumor growth of GICs in brain explants (Day 4/Day 0)” value [13] was “significantly suppressed growth”.
